Measured values: patent US10392389B2, “Heterocyclic compounds for the inhibition of PASK” (BioEnergenix, LLC, priority 2012, dated 2019)
pIC50: −log10 of the molar value.

The compounds below were run against T1, PASK (Invitrogen) (Homo sapiens, UniProt Q96RG2) (assay: PAS Kinase FRET Assay). Settings: PAS kinase TR-FRET assay (665 nm/615 nm); read-out: IC50 Kinase Domain.
T1 construct: IC50 Kinase Domain; purchased Invitrogen
Assay type: biochemical
From the text: Biochemical Assay for hPASK Activity
The aim of the FRET assay is to determine the inhibition potential of test compounds on targeted kinase. This assay platform provides a homogenous screening method for measuring kinase activity by quantitating the amount of phospho-substrate in solution following a kinase reaction.
In the presence of kinase and ATP, the Ulight-peptide is phosphorylated and captured by an anti-phospho-substrate antibody, which brings the Eu chelate donor and Ulight acceptor dyes into close proximity. Upon excitation at 340 nm, the Eu chelate transfers its energy to the Ulight dye, resulting in a fluorescent light emission at 665 nm.
Titration of kinase at 1 mM ATP was achieved via the following protocol. After making serial three-fold dilutions of PASK (Invitrogen) in reaction buffer across the plate; 5 μl of kinase dilution and 5 μl substrate/ATP mix were added to the wells of the white Optiplate-384 (PerkinElmer). The contents of the plate were and incubated at RT for 1 h. The reaction was stopped by adding 5 μl of stop solution to each test well followed by mixing and incubation at RT for 10 minutes. 5 μl of detection mix (detection antibody diluted in detection buffer) was added; the contents of the plate were mixed and then incubated in the dark for 1 hour at RT. The signal was recorded at TR-FRET mode (665 nm/615 nm). The results were graphed to calculate the EC50.
Titration of ATP at the EC50 concentration of kinase to determine ATP Km,app. was performed using the following method. After making serial dilutions of ATP (Invitrogen), 5 μl of ATP dilution and 5 μl substrate/kinase mix were added to the wells of the white Optiplate-384 (PerkinElmer). The contents of the plate were and incubated at RT for 1 h. The reaction was stopped by adding 5 μl of stop solution to each test well followed by mixing and incubation at RT for 10 minutes. 5 μl of detection mix (detection antibody diluted in detection buffer) was added; the contents of the plate were mixed and then incubated in the dark for 1 hour at RT. The signal was recorded at TR-FRET mode (665 nm/615 nm). The results were graphed to calculate the EC50 as the ATP Km,app.
Compound screening was done via the following method. 10 mM stock solution of test compound in DMSO was prepared by dissolving test compound in DMSO at RT for 1 hour, and then sonicating at 100% output for 8 minutes. If compound is not soluble under this condition, it was diluted to 3 mM. Kinase reaction buffer was prepared containing 10 mM MgCl2, 50 mM HEPES, 1 mM EGTA, 0.01% TWEEN-20, 2 mM DTT. Serial dilutions of the test compounds were prepared at 4× final assay concentrations using Freedom EVO200® dispensing system as follows: 12×10^−5 M, 4×10^−5 M, 1.33×10^−5 M, 4.44×10^−6 M, 1.48×10^−6 M, 4.92×10^−7 M, 1.65×10^−7 M, […], 1.82×10^−8M, 6.09×10^−9, 2.03×10^−9 M. Test compounds (2.5 μl at 4× the final assay concentration) was added to wells using Freedom EVO200® dispensing system. As a positive control, 2.5 μl of positive compound was added to assay wells, and 2.5 μl of DMSO to assay wells as vehicle control. Kinase solution was prepared in reaction buffer at 2× final assay concentration. Kinase solution (5 μl) was added to each well of the assay plate. The substrate and ATP solution was prepared in kinase reaction buffer at 4× final assay concentration. The kinase reaction was started by adding 2.5 μl of substrate+ATP mix solution to each well of the assay plate. The plate is mixed on a plate shaker; then covered and allowed to react for 2 hours in the dark at 25° C. without shaking. The reaction was stopped by adding 5 μl of stop solution to each test well followed by mixing and incubation at RT for 10 minutes in the dark. 5 μl of detection mix (detection antibody diluted in detection buffer) was added; the contents of the plate were mixed and then incubated in the dark for 1 hour at RT. The signal was recorded at TR-FRET mode (665 nm/615 nm).

T1 sequence (Q96RG2 999-1251 limits assumed): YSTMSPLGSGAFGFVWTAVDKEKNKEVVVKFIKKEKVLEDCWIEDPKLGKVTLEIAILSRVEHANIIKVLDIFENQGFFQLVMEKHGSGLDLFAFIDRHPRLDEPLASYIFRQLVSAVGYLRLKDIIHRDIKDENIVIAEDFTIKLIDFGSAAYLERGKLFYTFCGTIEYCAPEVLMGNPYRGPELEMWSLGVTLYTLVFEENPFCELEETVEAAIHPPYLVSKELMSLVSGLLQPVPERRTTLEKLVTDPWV

| Structure (SMILES) | pIC50 |
| --- | --- |
| Cc1noc(-c2cnn3c(=O)cc(-c4ccc5c(cnn5C5COC5)c4)[nH]c23)n1 [Example 99, 3-(3-methyl-1,2,4-oxadiazol-5-yl)-5-(1-(oxetan-3-yl)-1H-indazol-5-yl)pyrazolo[1,5-a]pyrimidin-7(4H)-one] | ≥ 5.00 |
| CCc1nn2c(=O)cc(-c3ccc(Cl)c(OC)c3)[nH]c2c1-c1nc(C)no1 [Example 117, 5-(4-chloro-3-methoxyphenyl)-2-ethyl-3-(3-methyl-1,2,4-oxadiazol-5-yl)-4H,7H-pyrazolo[1,5-a]pyrimidin-7-one] | ≥ 5.00 |
| CCc1noc2cc(-c3cc(=O)n4ncc(-c5ncc(C)o5)c4[nH]3)ccc12 [Example 121, 5-(3-ethylbenzo[d]isoxazol-6-yl)-3-(5-methyloxazol-2-yl)pyrazolo[1,5-a]pyrimidin-7(4H)-one] | ≥ 5.00 |
| CNC(=O)Cc1cnn2c(=O)cc(-c3ccc(Cl)c(OC)c3)[nH]c12 [Example 81, 2-(5-(4-chloro-3-methoxyphenyl)-7-oxo-4,7-dihydropyrazolo[1,5-a]pyrimidin-3-yl)-N-methylacetamide] | ≥ 5.00 |
| Cc1noc2cc(-c3cc(=O)n4ncc(C(N)=O)c4[nH]3)ccc12 [Example 122, 5-(3-methylbenzo[d]isoxazol-6-yl)-7-oxo-4,7-dihydropyrazolo[1,5-a]pyrimidine-3-carboxamide] | ≥ 5.00 |
| O=c1cc(-c2ccc(Cl)cc2)[nH]c2c(-c3ncco3)cnn12 [Example 48, 5-(4-chlorophenyl)-3-(oxazol-2-yl)pyrazolo[1,5-a]pyrimidin-7(4H)-one] | ≥ 5.00 |
| CCOc1cc(-c2cc(=O)n3ncc(-c4ccnn4C)c3[nH]2)ccc1F [Example 78, 5-(3-ethoxy-4-fluorophenyl)-3-(1-methyl-1H-pyrazol-5-yl)pyrazolo[1,5-a]pyrimidin-7(4H)-one] | ≥ 5.00 |
| COc1cc(-c2cc(=O)n3ncc(-c4cc(C)no4)c3[nH]2)ccc1Cl [Example 52, 5-(4-chloro-3-methoxyphenyl)-3-(3-methylisoxazol-5-yl)pyrazolo[1,5-a]pyrimidin-7(4H)-one] | ≥ 5.00 |
| CCc1cnc(-c2cnn3c(=O)cc(-c4ccc5[nH]nnc5c4)[nH]c23)o1 [Example 6, 5-(1H-1,2,3-benzotriazol-5-yl)-3-(5-ethyl-1,3-oxazol-2-yl)-4H,7H-pyrazolo[1,5-a]pyrimidin-7-one] | ≥ 5.00 |

Next, values leading:

| pIC50 | Structure (SMILES) |
| --- | --- |
| ≥ 5.00 | CCCn1ncc2cc(-c3cc(=O)n4ncc(-c5ncc(C)o5)c4[nH]3)ccc21 [Example 103, 3-(5-methyloxazol-2-yl)-5-(1-propyl-1H-indazol-5-yl)pyrazolo[1,5-a]pyrimidin-7(4H)-one] |
| ≥ 5.00 | CCn1ncc2cc(-c3cc(=O)n4ncc(-c5ccn(C)n5)c4[nH]3)ccc21 [Example 32, 5-(1-ethyl-1H-indazol-5-yl)-3-(1-methyl-1H-pyrazol-3-yl)-4H,7H-pyrazolo[1,5-a]pyrimidin-7-one] |
| ≥ 5.00 | Cc1coc(-c2cnn3c(=O)cc(-c4ccc5onc(C)c5c4)[nH]c23)n1 [Example 90, 5-(3-methylbenzo[d]isoxazol-5-yl)-3-(4-methyloxazol-2-yl)pyrazolo[1,5-a]pyrimidin-7(4H)-one] |
| ≥ 5.00 | Cc1cnc(-c2cnn3c(=O)cc(-c4ccc(Cl)c(OC(F)(F)F)c4)[nH]c23)o1 [Example 38, 5-[4-chloro-3-(trifluoromethoxy)phenyl]-3-(5-methyloxazol-2-yl)-4H,7H-pyrazolo[1,5-a]pyrimidin-7-one] |
| ≥ 5.00 | Cc1cnc(-c2cnn3c(=O)cc(-c4ccc(Cl)c(Cl)c4)[nH]c23)s1 [Example 102, 5-(3,4-dichlorophenyl)-3-(5-methylthiazol-2-yl)pyrazolo[1,5-a]pyrimidin-7(4H)-one] |
| ≥ 5.00 | CCOc1cc(-c2cc(=O)n3ncc(-c4ncco4)c3[nH]2)ccc1Cl [Example 34, 5-(4-chloro-3-ethoxyphenyl)-3-(oxazol-2-yl)-4H,7H-pyrazolo[1,5-a]pyrimidin-7-one] |
